Active and inactive are the calls of the source. The calls are words filed in the database; no cut-off is given here. A value given as a limit tells only on which side of the number the result lay.

In test [1] the target is Cytochrome P450 2C9 (Homo sapiens, UniProt P11712).
Description: Inhibition of human recombinant CYP2C9 preincubated for 10 mins followed by NADPH addition and measured after 10 to 30 mins by P450-Glo luminescence assay
For test [2], the target named is T1, Androgen receptor (Homo sapiens) (UniProt P10275).
T1 sequence (whole entry): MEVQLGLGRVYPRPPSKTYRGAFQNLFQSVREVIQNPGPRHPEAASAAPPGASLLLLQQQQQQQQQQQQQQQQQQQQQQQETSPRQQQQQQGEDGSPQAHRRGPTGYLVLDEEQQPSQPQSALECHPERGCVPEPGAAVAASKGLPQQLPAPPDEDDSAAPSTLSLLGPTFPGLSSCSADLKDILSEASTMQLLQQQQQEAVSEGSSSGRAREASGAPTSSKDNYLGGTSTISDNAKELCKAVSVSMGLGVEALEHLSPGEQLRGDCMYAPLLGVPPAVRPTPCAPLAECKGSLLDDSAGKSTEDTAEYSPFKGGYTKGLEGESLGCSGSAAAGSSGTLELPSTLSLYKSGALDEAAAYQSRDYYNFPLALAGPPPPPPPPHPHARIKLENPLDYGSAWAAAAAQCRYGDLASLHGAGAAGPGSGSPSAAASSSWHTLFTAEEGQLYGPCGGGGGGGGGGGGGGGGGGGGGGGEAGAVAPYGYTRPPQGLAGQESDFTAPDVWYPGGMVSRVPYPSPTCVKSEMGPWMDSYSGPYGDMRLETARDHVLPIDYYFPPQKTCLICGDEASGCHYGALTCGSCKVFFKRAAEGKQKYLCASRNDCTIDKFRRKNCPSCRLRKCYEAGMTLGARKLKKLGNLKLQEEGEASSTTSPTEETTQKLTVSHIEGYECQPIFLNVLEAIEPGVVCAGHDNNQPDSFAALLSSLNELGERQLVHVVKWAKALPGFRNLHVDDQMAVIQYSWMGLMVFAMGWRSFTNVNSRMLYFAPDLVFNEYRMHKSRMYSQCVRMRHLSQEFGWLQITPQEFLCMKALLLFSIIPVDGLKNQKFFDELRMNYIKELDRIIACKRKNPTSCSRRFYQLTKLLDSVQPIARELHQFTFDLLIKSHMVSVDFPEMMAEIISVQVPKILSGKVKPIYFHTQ
Nature of the test: Agonist activity at GAL4 DNA binding domain fused androgen receptor ligand binding domain (unknown origin) at 0.25 to 25 uM by FRET-based assay.

The target in test [3] is T2, Estrogen receptor (Homo sapiens, UniProt P03372).
T2 sequence (P03372 whole entry): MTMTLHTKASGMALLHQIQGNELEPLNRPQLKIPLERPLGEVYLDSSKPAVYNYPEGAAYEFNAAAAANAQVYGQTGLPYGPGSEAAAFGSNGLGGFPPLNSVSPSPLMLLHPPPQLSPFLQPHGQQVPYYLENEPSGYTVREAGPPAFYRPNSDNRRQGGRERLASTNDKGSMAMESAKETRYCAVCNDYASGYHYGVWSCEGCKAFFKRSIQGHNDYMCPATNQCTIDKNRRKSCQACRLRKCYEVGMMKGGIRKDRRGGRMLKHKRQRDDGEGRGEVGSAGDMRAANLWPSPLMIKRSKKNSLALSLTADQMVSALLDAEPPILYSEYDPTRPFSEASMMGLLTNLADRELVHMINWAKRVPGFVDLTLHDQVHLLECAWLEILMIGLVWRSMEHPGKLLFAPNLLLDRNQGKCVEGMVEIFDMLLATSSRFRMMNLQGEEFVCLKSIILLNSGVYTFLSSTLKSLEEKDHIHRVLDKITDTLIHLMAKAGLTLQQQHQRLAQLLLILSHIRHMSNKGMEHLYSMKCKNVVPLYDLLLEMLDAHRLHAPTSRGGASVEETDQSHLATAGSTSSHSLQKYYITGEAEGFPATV
Description: Agonist activity at estrogen receptor alpha (unknown origin) after 22 hrs by cell-based luciferase reporter gene assay

Test [4] addresses T3, Vitamin D3 receptor (Homo sapiens) (UniProt P11473).
T3 sequence (whole entry): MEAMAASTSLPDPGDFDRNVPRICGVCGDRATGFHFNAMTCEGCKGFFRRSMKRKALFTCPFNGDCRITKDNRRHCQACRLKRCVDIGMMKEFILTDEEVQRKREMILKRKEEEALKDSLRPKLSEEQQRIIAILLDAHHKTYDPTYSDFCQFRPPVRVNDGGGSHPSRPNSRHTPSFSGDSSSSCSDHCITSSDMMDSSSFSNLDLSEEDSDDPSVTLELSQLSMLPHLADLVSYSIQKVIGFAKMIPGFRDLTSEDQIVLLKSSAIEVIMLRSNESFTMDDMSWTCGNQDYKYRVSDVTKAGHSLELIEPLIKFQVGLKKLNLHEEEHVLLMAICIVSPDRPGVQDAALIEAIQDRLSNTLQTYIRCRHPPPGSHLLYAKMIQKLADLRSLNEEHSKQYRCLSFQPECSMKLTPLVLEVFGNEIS
Nature of the test: Agonist activity at GAL4 DNA binding domain fused VDR ligand binding domain (unknown origin) at 0.25 to 25 uM by FRET-based assay.

Test [5] concerns the target T2, Estrogen receptor. The source holds these as a separate data set.
The test system of test [6] is Mus musculus. Nature of the test: Memory enhancement effect in C57BL/6 mouse assessed as time spent with novel object at 5 mg/kg, ip by novel object recognition test. The test is classed as functional.
Test [7] has as its target T4, Peroxisome proliferator-activated receptor delta (Homo sapiens) (UniProt Q03181).
T4 sequence (whole entry): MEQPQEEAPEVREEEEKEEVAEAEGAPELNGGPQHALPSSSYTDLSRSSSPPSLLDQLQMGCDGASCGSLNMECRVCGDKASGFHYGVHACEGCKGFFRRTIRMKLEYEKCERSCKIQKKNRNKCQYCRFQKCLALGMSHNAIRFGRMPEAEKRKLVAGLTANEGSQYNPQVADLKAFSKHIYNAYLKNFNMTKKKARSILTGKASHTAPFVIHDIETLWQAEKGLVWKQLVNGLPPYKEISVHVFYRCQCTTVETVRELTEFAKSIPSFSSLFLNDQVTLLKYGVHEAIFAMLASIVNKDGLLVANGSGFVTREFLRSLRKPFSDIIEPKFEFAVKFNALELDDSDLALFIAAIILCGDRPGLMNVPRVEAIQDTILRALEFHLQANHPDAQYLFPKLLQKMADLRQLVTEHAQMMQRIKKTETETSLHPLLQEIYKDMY
As to the kind of experiment: Agonist activity at GAL4 DNA binding domain fused PPARdelta (unknown origin) at 0.25 to 25 uM by FRET-based assay.

Test [8] concerns the target T2, Estrogen receptor. As to the kind of experiment: cell-based.
Description: Agonist activity at GAL4 DNA binding domain fused full-length chimeric estrogen receptor alpha (unknown origin) by FRET-based assay

Cytochrome P450 2C9, sequence (P11712 whole entry): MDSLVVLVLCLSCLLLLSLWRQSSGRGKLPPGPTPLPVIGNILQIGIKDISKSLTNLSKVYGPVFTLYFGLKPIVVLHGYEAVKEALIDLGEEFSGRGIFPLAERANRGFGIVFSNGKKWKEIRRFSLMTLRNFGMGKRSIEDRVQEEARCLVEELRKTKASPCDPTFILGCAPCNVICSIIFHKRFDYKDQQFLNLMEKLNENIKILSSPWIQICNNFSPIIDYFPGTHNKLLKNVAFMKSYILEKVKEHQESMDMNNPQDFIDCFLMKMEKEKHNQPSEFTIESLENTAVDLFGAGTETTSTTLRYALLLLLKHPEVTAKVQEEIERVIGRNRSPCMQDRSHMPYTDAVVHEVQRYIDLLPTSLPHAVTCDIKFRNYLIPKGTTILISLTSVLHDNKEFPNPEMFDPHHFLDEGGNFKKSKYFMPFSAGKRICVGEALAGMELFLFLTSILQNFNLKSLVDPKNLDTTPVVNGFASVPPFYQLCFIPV

For the compound `OC[C@H]1CC[C@H](c2ccc(O)cc2)CC1`, the EC50 (usually the concentration needed to bring the measured effect to its halfway point) in test [1] is 34 µM; in test [3], 20.4 µM; in test [5] it was above 10 µM; in test [8], 930 nM. Further, the outcome in test [2], in test [4] and in test [7] was inactive. Besides, the Time in test [6] is 1.65 s.

The values are drawn from ChEMBL document CHEMBL4371004, “A-C Estrogens as Potent and Selective Estrogen Receptor-Beta Agonists (SERBAs) to Enhance Memory Consolidation under Low-Estrogen Conditions” (J Med Chem, 2018).
